# In US8124766B2, “Inhibitors of diacylglycerol acyltransferase” (Madrigal Pharmaceuticals, Inc., priority 2008, dated 2012):
# Counter-ions that a name gives are not always drawn.
# Test system: DGAT
# Test: DGAT Phospholipid FlashPlate Assay
# Type: biochemical
# Details: DGAT pellet, DAG-coated PL-FlashPlate, 14C-Pal-CoA, 37° C. for 1 hour; read-out: DGAT Inhibition Activity IC50
# Outline: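 DGAT membrane pellet (0.13 mg protein/ml diluted stock) reacted 1 h at 37 °C with 14C-palmitoyl-CoA (8.3 μM diluted stock) on FlashPlates coated with 500 μM DAG, in Tris-HCl pH 7.5, 100 mM NaCl. Scintillation counts converted to % inhibition; IC50 by 4-parameter logistic fit.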
row,SMILES,IC50
1,"CCOC(=O)N1CC[C@H](Nc2ccc(NC(=O)c3cc4c(OC)c(OC)ccc4n3CC)cn2)C1 [Example 54, (S)-3-{5-[(1-Ethyl-4,5-dimethoxy-1H-indole-2-carbonyl)-amino]-pyridin-2-ylamino}pyrrolidine-1-carboxylic acid ethyl ester hydrochloride]",0.309 µM
2,"CCOC(=O)N1CC[C@H](Nc2ccc(NC(=O)c3cc4c(Cl)c(Cl)ccc4n3CC)cn2)C1 [Example 57, (S)-3-{5-[(4,5-Dichloro-1-ethyl-1H-indole-2-carbonyl)-amino]-pyridin-2-ylamino}-pyrrolidine-1-carboxylic acid ethyl ester hydrochloride]",0.548 µM
3,"COc1cccc2c(C)c(C(=O)Nc3ccc(N4CCN(C(=O)CC(C)(C)C(=O)O)CC4)cc3)[nH]c12 [Example 74, 4-(4-{4-[(7-Methoxy-3-methyl-1H-indole-2-carbonyl)-amino]-phenyl}-piperazin-1-yl)-2,2-dimethyl-4-oxo-butyric acid]",0.064 µM
4,"COCc1c(C(=O)Nc2ccc(N3CCN(C(=O)OC(C)(C)C)CC3)cc2)oc2ccccc12 [Example 79, 4-{4-[(3-Methoxymethyl-benzofuran-2-carbonyl)-amino]-phenyl}-piperazine-1-carboxylic acid tert-butyl ester]",0.94 µM
5,"CCOC(=O)N1CC[C@H](Nc2ccc(NC(=O)c3cc4cc(Br)ccc4n3CC)cn2)C1 [Example 50, (S)-3-{5-[(5-Bromo-1-ethyl-1H-indole-2-carbonyl)-amino]-pyridin-2-ylamino}-pyrrolidine-1-carboxylic acid ethyl ester hydrochloride]",0.929 µM
6,"CCn1c(C(=O)Nc2ccc(N3CCN(C(=O)CC(C)(C)C(=O)O)CC3)nc2)cc2c(OCC(C)C)cccc21 [Example 13, 4-(4-{5-[(1-Ethyl-4-isobutoxy-1H-indole-2-carbonyl)-amino]-pyridin-2-yl}-piperazin-1-yl)-2,2-dimethyl-4-oxo-butyric acid hydrochloric acid]",0.283 µM
7,"CCOC(=O)N1CC[C@H](Nc2ccc(NC(=O)c3cc4cc(Br)ccc4s3)cn2)C1 [Example 46, (S)-3-{5-[(5-Bromo-benzo[b]thiophene-2-carbonyl)-amino]pyridin-2-ylamino}-pyrrolidine-1-carboxylic acid ethyl ester hydrochloride]",0.303 µM
8,"COCCN(C)c1ccc(NC(=O)c2sc3ccccc3c2C)cn1 [Example 35, 3-Methyl-benzo[b]thiophene-2-carboxylic acid {6-[(2-methoxy-ethyl)-methyl-amino]-pyridin-3-yl}-amide hydrochloride]",0.351 µM

# Next, values leading:
row,IC50,SMILES
1,0.495 µM,"CCOc1cccc2c1cc(C(=O)Nc1ccc(C3CCN(C(=O)[C@@H]4CCC[C@H]4C(=O)O)CC3)cc1)n2CC [Example 32, (1R,2R)-2-(4-{4-[(4-Ethoxy-1-ethyl-1,1-indole-2-carbonyl)-amino]-phenyl}-piperidine-1-carbonyl)-cyclopentanecarboxylic acid]"
2,0.24 µM,"CCn1c(C(=O)Nc2ccc(C3CCN(C(=O)CC4(C(=O)O)CCCC4)CC3)cc2)cc2c(Cl)c(Cl)ccc21 [Example 62, 1-[2-(4-{4-[(4,5-Dichloro-1-ethyl-1H-indole-2-carbonyl)-amino]-phenyl}-piperidin-1-yl)-2-oxo-ethyl]-cyclopentanecarboxylic acid]"
3,0.183 µM,"CCn1c(C(=O)Nc2ccc(N3CCN(C(=O)CC(C)(C)C(=O)O)CC3)nc2)cc2c(C(F)(F)F)cccc21 [Example 15, 4-(4-{5-[(1-Ethyl-4-trifluoromethyl-1H-indole-2-carbonyl)-amino]-pyridin-2-yl}-piperazin-1-yl)-2,2-dimethyl-4-oxo-butyric acid]"
4,0.824 µM,"CCn1c(C(=O)Nc2ccc(C3CCN(C(=O)[C@H]4CC[C@H](C(=O)O)CC4)CC3)cc2)cc2c(C)cccc21 [Example 30, trans-4-(4-{4-[(1-Ethyl-4-methyl-1H-indole-2-carbonyl)-amino]-phenyl}-piperidine-1-carbonyl)-trans-1,4-cyclohexanecarboxylic acid]"
5,0.236 µM,"CCn1c(C(=O)Nc2ccc(N3CCN(C(=O)CC4SC(=O)NC4=O)CC3)cc2)cc2c(Cl)c(Cl)ccc21 (stereo not shown) [Example 69, 4,5-Dichloro-1-ethyl-1H-indole-2-carboxylic acid (4-{4-[2-(2,4-dioxo-thiazolidin-5-yl)-acetyl]-piperazin-1-yl}-phenyl)-amide]"
6,0.826 µM,"CCn1c(C(=O)Nc2ccc(N3CCN(C(=O)[C@H]4CC[C@H](C(=O)OCc5ccccc5)CC4)CC3)nc2)cc2c(OC)cccc21 [Example 27, trans-4-(4-{5-[(1-Ethyl-4-methoxy-1H-indole-2-carbonyl)-amino]-pyridin-2-yl}-piperazine-1-carbonyl)-cyclohexanecarboxylic acid benzyl ester]"
7,0.316 µM,"CCOc1cccc2c1cc(C(=O)Nc1ccc(C3CCN(C(=O)CC(C)(C)C(=O)O)CC3)cc1)n2CC [Example 7, 4-(4-{4-[(4-Ethoxy-1-ethyl-1H-indole-2-carbonyl)-amino]-phenyl}-piperidin-1-yl)-2,2-dimethyl-4-oxo-butyric acid]"
8,0.38 µM,"CCOc1cccc2c1cc(C(=O)Nc1ccc(N3CCN(C(=O)[C@@H]4CCC[C@H]4C(=O)O)CC3)cc1)n2CC [Example 31, (1R,2R)-2-(4-{4-[(4-Ethoxy-1-ethyl-1H-indole-2-carbonyl)-amino]-phenyl}-piperazine-1-carbonyl)-cyclopentanecarboxylic acid]"
